According to patent publication US9944645B2, “Imidazotriazines and imidazopyrimidines as kinase inhibitors” (Incyte Holdings Corporation, priority 2006, dated 2018):

Target: c-Met kinase (h-Met; histidine-tagged c-Met catalytic domain fusion protein) (Homo sapiens (Human), UniProt P08581)
Assay: In Vitro c-Met Kinase Enzyme Assays
Assay type: biochemical
Details: phosphorylation of poly Glu-Tyr, 5 μM ATP, 25 minutes at 30° C.
Method in brief: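 His-tagged c-Met catalytic domain reacted 25 min at 30° C, within the linear initial-rate range. Phosphotyrosine detected by ELISA with peroxidase-labeled anti-phospho-tyrosine antibody and TMB, OD read at 450 nm (540 nm correction); IC50 from curve fit.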

c-Met kinase (h-Met; histidine-tagged c-Met catalytic domain fusion protein), sequence (P08581 1078-1345): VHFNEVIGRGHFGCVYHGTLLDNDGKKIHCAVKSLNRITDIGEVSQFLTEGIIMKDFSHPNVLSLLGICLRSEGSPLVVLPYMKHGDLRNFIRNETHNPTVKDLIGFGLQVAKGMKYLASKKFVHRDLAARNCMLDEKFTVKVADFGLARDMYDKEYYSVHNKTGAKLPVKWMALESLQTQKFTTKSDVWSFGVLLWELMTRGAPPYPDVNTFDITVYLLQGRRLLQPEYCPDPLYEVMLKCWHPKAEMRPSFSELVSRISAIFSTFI

SMILES | IC50
O=C(NC1(c2ccccn2)CC1)c1ccc(-c2cnc3ncc(C4(c5ccc6ncccc6c5)CC4)n3c2)cc1F [Example 166, 2-Fluoro-N-(1-pyridin-2-ylcyclopropyl)-4-[3-(1-quinolin-6-ylcyclopropyl)imidazo[1,2-a]pyrimidin-6-yl]benzamide] | < 500 nM
CC(c1ccc2ncccc2c1)c1cnc2ncc(-c3ccc(C(=O)N[C@@H](C(=O)N(C)C)C(C)C)cc3)nn12 (stereo partly drawn) [Example 122, N-{(1R)-1-[(Dimethylamino)carbonyl]-2-methylpropyl}-4-[7-(1-quinolin-6-ylethyl)imidazo[1,2-b][1,2,4]triazin-2-yl]benzamide] | < 500 nM
Nc1nc2ncc(C3(c4ccc5ncccc5c4)CC3)n2nc1-c1cccc(Cl)c1Cl [Example 193, 2-(2,3-Dichlorophenyl)-7-(1-quinolin-6-ylcyclopropyl)imidazo[1,2-b][1,2,4]triazin-3-amine] | < 500 nM
O=C(NCCO)c1ccc(-c2cnc3ncc(Cc4ccc5ncccc5c4)n3n2)cc1F [Example 143, 2-Fluoro-N-(2-hydroxyethyl)-4-[7-(quinolin-6-ylmethyl)imidazo[1,2-b][1,2,4]triazin-2-yl]benzamide] | < 500 nM
CC(C)C[C@@H](NC(=O)c1ccc(-c2cnc3ncc(Cc4ccc5ncccc5c4)n3n2)cc1F)C(=O)N(C)C [Example 136, N-{(1R)-1-[(Dimethylamino)carbonyl]-3-methylbutyl}-2-fluoro-4-[7-(quinolin-6-ylmethyl)imidazo[1,2-b][1,2,4]triazin-2-yl]benzamide] | < 500 nM
CN(CCN(C)c1ccccn1)C(=O)c1ccc(-c2cnc3ncc(C4(c5ccc6ncccc6c5)CC4)n3c2)cc1F [Example 173, 2-Fluoro-N-methyl-N-2-[methyl(pyridin-2-yl)amino]ethyl-4-[3-(1-quinolin-6-ylcyclopropyl)imidazo[1,2-a]pyrimidin-6-yl]benzamide] | < 500 nM
O=C(NCc1ccncc1)c1ccc(-c2cnc3ncc(Cc4ccc5ncccc5c4)n3n2)cc1F [Example 153, 2-Fluoro-N-(pyridin-4-ylmethyl)-4-[7-(quinolin-6-ylmethyl)imidazo[1,2-b][1,2,4]triazin-2-yl]benzamide] | < 500 nM
CN(C)C(=O)N1CCC(n2cc(-c3cnc4ncc(C5(c6ccc7ncccc7c6)CC5)n4c3)cn2)CC1 [Example 91, N,N-Dimethyl-4-{4-[3-(1-quinolin-6-ylcyclopropyl)imidazo[1,2-a]pyrimidin-6-yl]-1H-pyrazol-1-yl}piperidine-1-carboxamide] | < 500 nM
CC(C)(C)[C@H](NC(=O)c1ccc(-c2cnc3ncc(Cc4ccc5ncccc5c4)n3n2)cc1F)C(=O)N1CCC1 [Example 133, N-[(1S)-1-(Azetidin-1-ylcarbonyl)-2,2-dimethylpropyl]-2-fluoro-4-[7-(quinolin-6-ylmethyl)imidazo[1,2-b][1,2,4]triazin-2-yl]benzamide] | < 500 nM
O=C(NCC1(O)CC1)c1ccc(-c2cnc3ncc(Cc4ccc5ncccc5c4)n3n2)cc1F [Example 202, 2-Fluoro-N-[(1-hydroxycyclopropyl)methyl]-4-[7-(quinolin-6-ylmethyl)imidazo[1,2-b][1,2,4]triazin-2-yl]benzamide] | < 500 nM
O=C(N[C@H]1CC[C@H](O)CC1)c1cc(F)c(-c2cnc3ncc(C4(c5ccc6ncccc6c5)CC4)n3c2)cc1F [Example 80, 2,5-Difluoro-N-(trans-4-hydroxycyclohexyl)-4-[3-(1-quinolin-6-ylcyclopropyl)imidazo[1,2-a]pyrimidin-6-yl]benzamide] | < 500 nM
COC1CCN(C(=O)C(C)NC(=O)c2ccc(-c3cnc4ncc(C5(c6ccc7ncccc7c6)CC5)n4c3)cc2F)C1 (single isomer, unassigned) [Example 201] | < 500 nM
CC(C)(C)[C@@H](CO)NC(=O)c1ccc(-c2cnc3ncc(Cc4ccc5ncccc5c4)n3n2)cc1F [Example 157, 2-Fluoro-N-[(1S)-1-(hydroxymethyl)-2,2-dimethylpropyl]-4-[7-(quinolin-6-ylmethyl)imidazo[1,2-b][1,2,4]triazin-2-yl]benzamide] | < 500 nM
CN(C(=O)c1ccc(-c2cnc3ncc(C4(c5ccc6ncccc6c5)CC4)n3c2)cc1)C1CCN(Cc2ccccc2)C1 (stereo not drawn) [Example 32, N-(1-Benzylpyrrolidin-3-yl)-N-methyl-4-[3-(1-quinolin-6-ylcyclopropyl)imidazo[1,2-a]pyrimidin-6-yl]benzamide] | < 500 nM
COc1ccc(Sc2cnc3ncc(-c4ccc(Br)cc4)cn23)cc1 [Example 19, 6-(4-bromophenyl)-3-[(4-methoxyphenyl)thio]imidazo[1,2-a]pyrimidine] | < 500 nM
Cn1cc(-c2ccc(-c3cnc4ncc(C5(c6ccc7ncccc7c6)CC5)n4c3)cc2F)cn1 [Example 87, 6-(1-{6-[3-Fluoro-4-(1-methyl-1H-pyrazol-4-yl)phenyl]imidazo[1,2-a]pyrimidin-3-yl}cyclopropyl)quinoline] | < 500 nM
CC(c1ccc2ncccc2c1)c1cnc2ncc(-c3ccc(C(=O)N[C@H]4CC[C@H](O)CC4)c(F)c3)nn12 (stereo partly drawn) [Example 159, 2-Fluoro-N-(trans-4-hydroxycyclohexyl)-4-[7-(1-quinolin-6-ylethyl)imidazo[1,2-b][1,2,4]triazin-2-yl]benzamide] | < 500 nM

SMILES | IC50
N#CCCn1cc(-c2cnc3ncc(Cc4ccc5ncccc5c4)n3n2)cn1 [Example 138, 3-{4-[7-(Quinolin-6-ylmethyl)imidazo[1,2-b][1,2,4]triazin-2-yl]-1H-pyrazol-1-yl}propanenitrile] | < 500 nM
O=C(NCc1ccccn1)c1ccc(-c2cnc3ncc(Cc4ccc5ncccc5c4)n3n2)cc1F [Example 151, 2-Fluoro-N-(pyridin-2-ylmethyl)-4-[7-(quinolin-6-ylmethyl)imidazo[1,2-b][1,2,4]triazin-2-yl]benzamide] | < 500 nM
O=C(COc1ccc(-c2cnc3ncc(C4(c5ccc6ncccc6c5)CC4)n3c2)cc1)N1CCCC1 [Example 63, 6-(1-{6-[4-(2-Oxo-2-pyrrolidin-1-ylethoxy)phenyl]imidazo[1,2-a]pyrimidin-3-yl}cyclopropyl)quinoline] | < 500 nM
C[C@H](COC(=O)N(C)C)NC(=O)c1ccc(-c2cnc3ncc(C4(c5ccc6ncccc6c5)CC4)n3n2)cc1 [Example 121] | < 500 nM
O=C(NCC1CCCO1)c1ccc(-c2cnc3ncc(C4(c5ccc6ncccc6c5)CC4)n3n2)cc1 (stereo not drawn) [Example 105, 4-[7-(1-Quinolin-6-ylcyclopropyl)imidazo[1,2-b][1,2,4]triazin-2-yl]-N-(tetrahydrofuran-2-ylmethyl)benzamide] | < 500 nM
COc1ccc(Cc2cnc3ncc(-c4ccc(F)cc4)cn23)cc1 [Example 4, 6-(4-Fluorophenyl)-3-(4-methoxybenzyl)imidazo[1,2-a]pyrimidine] | < 500 nM
O=C(N[C@H]1CC[C@H](O)CC1)c1ccc(-c2cnc3ncc(Cc4ccc5ncccc5c4)n3n2)cc1F [Example 128, 2-Fluoro-N-(trans-4-hydroxycyclohexyl)-4-[7-(quinolin-6-ylmethyl)imidazo[1,2-b][1,2,4]triazin-2-yl]benzamide] | < 500 nM
O=C(c1ccc(-c2cnc3ncc(C4(c5ccc6ncccc6c5)CC4)n3c2)cc1)N1CCC1 [Example 29, 6-(1-{6-[4-(Azetidin-1-ylcarbonyl)phenyl]imidazo[1,2-a]pyrimidin-3-yl}cyclopropyl)quinoline] | < 500 nM
NC(=O)c1ccc(-c2cnc3ncc(C4(c5ccc6ncccc6c5)CC4)n3c2)cc1F [Example 172, 2-Fluoro-4-[3-(1-quinolin-6-ylcyclopropyl)imidazo[1,2-a]pyrimidin-6-yl]benzamide] | < 500 nM
Cc1csc(C(C)NC(=O)c2cnn(-c3cnc4ncc(C5(c6ccc7ncccc7c6)CC5)n4c3)c2)n1 (stereo not drawn) [Example 25, N-[1-(4-Methyl-1,3-thiazol-2-yl)ethyl]-1-[3-(1-quinolin-6-ylcyclopropyl)imidazo[1,2-a]pyrimidin-6-yl]-1H-pyrazole-4-carboxamide] | < 500 nM
CC(C)C[C@@H](NC(=O)c1ccc(-c2cnc3ncc(Cc4ccc5ncccc5c4)n3n2)cc1F)C(=O)N1CCC1 [Example 137, N-[(1R)-1-(Azetidin-1-ylcarbonyl)-3-methylbutyl]-2-fluoro-4-[7-(quinolin-6-ylmethyl)imidazo[1,2-b][1,2,4]triazin-2-yl]benzamide] | < 500 nM
Cc1cnn(-c2cnc3ncc(C4(c5ccc6ncccc6c5)CC4)n3c2)c1 [Example 23, 6-{1-[6-(4-Methyl-1H-pyrazol-1-yl)imidazo[1,2-a]pyrimidin-3-yl]cyclopropyl}quinoline] | < 500 nM
COc1ccc(Cc2cnc3ncc(-c4ccc(F)cc4)nn23)cc1 [Example 1] | < 500 nM
O=C(NC1CCOC1)c1ccc(-c2cnc3ncc(C4(c5ccc6ncccc6c5)CC4)n3c2)cc1Cl (stereo not drawn) [Example 176, 2-Chloro-4-[3-(1-quinolin-6-ylcyclopropyl)imidazo[1,2-a]pyrimidin-6-yl]-N-(tetrahydrofuran-3-yl)benzamide] | < 500 nM
NC(=O)c1cc(F)c(-c2cnc3ncc(C4(c5ccc6ncccc6c5)CC4)n3c2)cc1F [Example 78, 2,5-Difluoro-4-[3-(1-quinolin-6-ylcyclopropyl)imidazo[1,2-a]pyrimidin-6-yl]benzamide] | < 500 nM
CS(=O)(=O)N1CC=C(c2ccc(-c3cnc4ncc(C5(c6ccc7ncccc7c6)CC5)n4n3)cc2)CC1 [Example 97, 6-[1-(2-{4-[1-(Methylsulfonyl)-1,2,3,6-tetrahydropyridin-4-yl]phenyl}imidazo[1,2-b][1,2,4]triazin-7-yl)cyclopropyl]quinoline] | < 500 nM
